Measurements as given in ChEMBL document CHEMBL3390836, “Mannich- and LedererManasse-based analogues of the natural product S-(+)-curcuphenol as cancer proliferation and migration inhibitors” (Medchemcomm, 2012).

Legend:
Assay type in all cases: functional
[1] = tested on: SNB-75; experiment: Cytotoxicity against human SNB75 cells assessed as cell growth at 10^-8 M after 48 hrs by SRB assay relative to control; details: SNB-75, 48 h, read-out: Activity
[2] = tested on: NCI-H226; experiment: Cytotoxicity against human NCI-H226 cells assessed as cell growth at 10^-8 M after 48 hrs by SRB assay relative to control; details: NCI-H226, 48 h, read-out: Activity
[3] = tested on: K562; experiment: Cytotoxicity against human K562 cells after 48 hrs by SRB assay; details: K562, 48 h; for CC50: read-out: LC50 (the source's name)
[4] = tested on: NCI-H23; experiment: Cytotoxicity against human NCI-H23 cells assessed as cell growth at 10^-6 M after 48 hrs by SRB assay relative to control; details: NCI-H23, 48 h, read-out: Activity
[5] = tested on: KM12; experiment: Cytotoxicity against human KM12 cells assessed as cell growth at 10^-8 M after 48 hrs by SRB assay relative to control; details: KM12, 48 h, read-out: Activity
[6] = tested on: NCI-H460; experiment: Cytotoxicity against human NCI-H460 cells assessed as cell growth at 10^-4 M after 48 hrs by SRB assay relative to control; details: NCI-H460, 48 h, read-out: Activity
[7] = Cytotoxicity against human EKVX cells assessed as cell growth at 10^-6 M after 48 hrs by SRB assay relative to control; details: read-out: Activity
[8] = tested on: KM12; experiment: Cytotoxicity against human KM12 cells assessed as cell growth at 10^-7 M after 48 hrs by SRB assay relative to control; details: KM12, 48 h, read-out: Activity
[9] = tested on: SNB-75; experiment: Cytotoxicity against human SNB75 cells after 48 hrs by SRB assay; details: SNB-75, 48 h
[10] = tested on: 786-0; experiment: Cytotoxicity against human 786-0 cells assessed as cell growth at 10^-7 M after 48 hrs by SRB assay relative to control; details: 786-0, 48 h, read-out: Activity
[11] = tested on: SNB-75; experiment: Cytotoxicity against human SNB75 cells assessed as cell growth at 10^-7 M after 48 hrs by SRB assay relative to control; details: SNB-75, 48 h, read-out: Activity
[12] = tested on: T47D; experiment: Cytotoxicity against human T47D cells assessed as cell growth at 10^-8 M after 48 hrs by SRB assay relative to control; details: read-out: Activity
[13] = tested on: U-251; experiment: Cytotoxicity against human U251 cells assessed as cell growth at 10^-8 M after 48 hrs by SRB assay relative to control; details: U-251, 48 h, read-out: Activity
[14] = Cytotoxicity against human OVCAR5 cells assessed as cell growth at 10^-8 M after 48 hrs by SRB assay relative to control; details: OVCAR-5, 48 h, read-out: Activity
[15] = tested on: SW-620; experiment: Cytotoxicity against human SW620 cells assessed as cell growth at 10^-4 M after 48 hrs by SRB assay relative to control; details: SW-620, 48 h, read-out: Activity
[16] = tested on: IGROV-1; experiment: Cytotoxicity against human IGROV1 cells assessed as cell growth at 10^-7 M after 48 hrs by SRB assay relative to control; details: IGROV-1, 48 h, read-out: Activity
[17] = tested on: T47D; experiment: Cytotoxicity against human T47D cells assessed as cell growth at 10^-4 M after 48 hrs by SRB assay relative to control; details: read-out: Activity
[18] = tested on: SF-295; experiment: Cytotoxicity against human SF295 cells assessed as cell growth at 10^-6 M after 48 hrs by SRB assay relative to control; details: SF-295, 48 h, read-out: Activity
[19] = tested on: RXF 393; experiment: Cytotoxicity against human RXF393 cells assessed as cell growth at 10^-4 M after 48 hrs by SRB assay relative to control; details: RXF 393, 48 h, read-out: Activity
[20] = tested on: HOP-62; experiment: Cytotoxicity against human HOP62 cells assessed as cell growth at 10^-6 M after 48 hrs by SRB assay relative to control; details: HOP-62, 48 h, read-out: Activity
[21] = tested on: NCI-H23; experiment: Cytotoxicity against human NCI-H23 cells assessed as cell growth at 10^-8 M after 48 hrs by SRB assay relative to control; details: NCI-H23, 48 h, read-out: Activity
[22] = tested on: CAKI-1; experiment: Cytotoxicity against human Caki1 cells assessed as cell growth at 10^-6 M after 48 hrs by SRB assay relative to control; details: CAKI-1, 48 h, read-out: Activity
[23] = tested on: A498; experiment: Cytotoxicity against human A498 cells assessed as cell growth at 10^-6 M after 48 hrs by SRB assay relative to control; details: A498, 48 h, read-out: Activity
[24] = tested on: MDA-MB-231; experiment: Cytotoxicity against human MDA-MB-231 cells assessed as cell growth at 10^-8 M after 48 hrs by SRB assay relative to control; details: MDA-MB-231, 48 h, read-out: Activity
[25] = tested on: NCI-H460; experiment: Cytotoxicity against human NCI-H460 cells after 48 hrs by SRB assay; details: NCI-H460, 48 h; for CC50: read-out: LC50 (the source's name)
[26] = tested on: NCI-H23; experiment: Cytotoxicity against human NCI-H23 cells after 48 hrs by SRB assay; details: NCI-H23, 48 h
[27] = tested on: SK-MEL-28; experiment: Cytotoxicity against human SK-MEL-28 cells assessed as cell growth at 10^-8 M after 48 hrs by SRB assay relative to control; details: SK-MEL-28, 48 h, read-out: Activity
[28] = Cytotoxicity against human PC3 cells assessed as cell growth at 10^-8 M after 48 hrs by SRB assay relative to control; details: PC-3, 48 h, read-out: Activity
[29] = tested on: SK-MEL-28; experiment: Cytotoxicity against human SK-MEL-28 cells assessed as cell growth at 10^-7 M after 48 hrs by SRB assay relative to control; details: SK-MEL-28, 48 h, read-out: Activity
[30] = tested on: KM12; experiment: Cytotoxicity against human KM12 cells after 48 hrs by SRB assay; details: KM12, 48 h; for CC50: read-out: LC50 (the source's name)
[31] = Cytotoxicity against human OVCAR8 cells assessed as cell growth at 10^-8 M after 48 hrs by SRB assay relative to control; details: OVCAR-8, 48 h, read-out: Activity
[32] = tested on: 786-0; experiment: Cytotoxicity against human 786-0 cells after 48 hrs by SRB assay; details: 786-0, 48 h
[33] = tested on: SK-MEL-2; experiment: Cytotoxicity against human SK-MEL-2 cells assessed as cell growth at 10^-7 M after 48 hrs by SRB assay relative to control; details: SK-MEL-2, 48 h, read-out: Activity
[34] = Cytotoxicity against human HCT15 cells after 48 hrs by SRB assay; details: HCT-15, 48 h; for CC50: read-out: LC50 (the source's name)
[35] = tested on: SW-620; experiment: Cytotoxicity against human SW620 cells after 48 hrs by SRB assay; details: SW-620, 48 h; for CC50: read-out: LC50 (the source's name)
[36] = tested on: MDA-MB-468; experiment: Cytotoxicity against human MDA-MB-468 cells assessed as cell growth at 10^-4 M after 48 hrs by SRB assay relative to control; details: MDA-MB-468, 48 h, read-out: Activity

CC(C)=CCC[C@H](C)c1ccc(C)c2c1OCN(CC1CCNCC1)C2
growth at 0.01 µM [1]: 92% | growth at 0.01 µM [2]: 86% | GI50 [3]: 2.68 µM | TGI [3]: 8.44 µM | CC50 [3]: 97.7 µM | growth at 1 µM [4]: 105% | growth at 0.01 µM [5]: 99% | growth at 100 µM [6]: -94% | growth at 1 µM [7]: 94% | growth at 0.1 µM [8]: 99% | GI50 [9]: 11.9 µM | LC50 [9]: 49.6 µM | TGI [9]: 24.3 µM | growth at 0.1 µM [10]: 88% | growth at 0.1 µM [11]: 85% | growth at 0.01 µM [12]: 95% | growth at 0.01 µM [13]: 99% | growth at 0.01 µM [14]: 88% | growth at 100 µM [15]: -87% | growth at 0.1 µM [16]: 107% | growth at 100 µM [17]: -70% | growth at 1 µM [18]: 87% | growth at 100 µM [19]: -93% | growth at 1 µM [20]: 90% | growth at 0.01 µM [21]: 94% | growth at 1 µM [22]: 98% | growth at 1 µM [23]: 102% | growth at 0.01 µM [24]: 101% | GI50 [25]: 5.36 µM | TGI [25]: 16.6 µM | CC50 [25]: 43.1 µM | GI50 [26]: 15.7 µM | LC50 [26]: 72 µM | TGI [26]: 33.6 µM | growth at 0.01 µM [27]: 107% | growth at 0.01 µM [28]: 102% | growth at 0.1 µM [29]: 101% | GI50 [30]: 12.3 µM | TGI [30]: 26 µM | CC50 [30]: 55 µM | growth at 0.01 µM [31]: 106% | GI50 [32]: 12.1 µM | LC50 [32]: 56.9 µM | TGI [32]: 26.3 µM | growth at 0.1 µM [33]: 111% | GI50 [34]: 6.51 µM | TGI [34]: 21.1 µM | CC50 [34]: 54 µM | GI50 [35]: 9.87 µM | TGI [35]: 23.1 µM | CC50 [35]: 53.5 µM | growth at 100 µM [36]: -80%

CC(C)=CCC[C@H](C)c1ccc(C)c(CNCC2CCNCC2)c1O
growth at 0.01 µM [1]: 90% | growth at 0.01 µM [2]: 98% | GI50 [3]: 1.01 µM | TGI [3]: 4.86 µM | CC50 [3]: 19.9 µM | growth at 1 µM [4]: 94% | growth at 0.01 µM [5]: 97% | growth at 100 µM [6]: -68% | growth at 1 µM [7]: 92% | growth at 0.1 µM [8]: 97% | GI50 [9]: 3.89 µM | LC50 [9]: > 25 µM | TGI [9]: 12.3 µM | growth at 0.1 µM [10]: 87% | growth at 0.1 µM [11]: 90% | growth at 0.01 µM [12]: 101% | growth at 0.01 µM [13]: 96% | growth at 0.01 µM [14]: 96% | growth at 100 µM [15]: -82% | growth at 0.1 µM [16]: 97% | growth at 100 µM [17]: -73% | growth at 1 µM [18]: 86% | growth at 100 µM [19]: -24% | growth at 1 µM [20]: 97% | growth at 0.01 µM [21]: 94% | growth at 1 µM [22]: 89% | growth at 1 µM [23]: 79% | growth at 0.01 µM [24]: 105% | GI50 [25]: 4.45 µM | TGI [25]: 9.23 µM | CC50 [25]: 19.1 µM | GI50 [26]: > 25 µM | LC50 [26]: > 25 µM | TGI [26]: > 25 µM | growth at 0.01 µM [27]: 102% | growth at 0.01 µM [28]: 97% | growth at 0.1 µM [29]: 100% | GI50 [30]: 4.12 µM | TGI [30]: 8.38 µM | CC50 [30]: 17.1 µM | growth at 0.01 µM [31]: 95% | GI50 [32]: 5.01 µM | LC50 [32]: > 25 µM | TGI [32]: 11.5 µM | growth at 0.1 µM [33]: 97% | GI50 [34]: 5.19 µM | TGI [34]: 18.6 µM | CC50 [34]: > 25 µM | GI50 [35]: 4.11 µM | TGI [35]: 8.14 µM | CC50 [35]: 16.1 µM | growth at 100 µM [36]: -90%
